In patent publication US8921360B2, “Heterobicycle-substituted azolyl benzene fungicides” (priority 2009, dated 2014):

Assays:
Type in all cases: in vivo
[1] = system: Erysiphe graminis f. sp. tritici; assay: Test A: wheat powdery mildew, preventive spray on wheat seedlings; conditions: 200 ppm; wheat seedlings sprayed to run-off, inoculated next day, rated after 8 days; 100 = 100% disease control, 0 = no control
Description: General protocol for preparing test suspensions for Tests A-G: the test compounds were first dissolved in acetone in an amount equal to 11% of the final volume and then suspended at the desired concentration (in ppm) in acetone and purified water (50/50 mix by volume) containing 250 ppm of the surfactant Trem® 014 (polyhydric alcohol esters). The resulting test suspensions were then used in Tests A-G. Spraying a 200 ppm test suspension to the point of run-off on the test plants was the equivalent of a rate of 800 g/ha. The test suspension was sprayed to the point of run-off on wheat seedlings. The following day the seedlings were inoculated with a spore dust of Erysiphe graminis f. sp. tritici, (the causal agent of wheat powdery mildew) and incubated in a growth chamber at 20° C. for 8 days, after which time disease ratings were visually made. Results for Tests A-G are given in Table A. In the Table, a rating of 100 indicates 100% disease control and a rating of 0 indicates no disease control (relative to the controls). A dash (-) indicates no test results. All results are for 200 ppm except where followed by an “*”, which indicates 40 ppm.

[2] = system: Puccinia recondita f sp. tritici; assay: Test B: wheat leaf rust, preventive spray on wheat seedlings; conditions: 200 ppm; wheat seedlings sprayed to run-off, inoculated next day, rated after 24 h + 7 days
Description: General protocol for preparing test suspensions for Tests A-G: the test compounds were first dissolved in acetone in an amount equal to 11% of the final volume and then suspended at the desired concentration (in ppm) in acetone and purified water (50/50 mix by volume) containing 250 ppm of the surfactant Trem® 014 (polyhydric alcohol esters). The resulting test suspensions were then used in Tests A-G. Spraying a 200 ppm test suspension to the point of run-off on the test plants was the equivalent of a rate of 800 g/ha. The test suspension was sprayed to the point of run-off on wheat seedlings. The following day the seedlings were inoculated with a spore suspension of Puccinia recondita f sp. tritici (the causal agent of wheat leaf rust) and incubated in a saturated atmosphere at 20° C. for 24 h, and then moved to a growth chamber at 20° C. for 7 days, after which time disease ratings were visually made. Results for Tests A-G are given in Table A. In the Table, a rating of 100 indicates 100% disease control and a rating of 0 indicates no disease control (relative to the controls). A dash (-) indicates no test results. All results are for 200 ppm except where followed by an “*”, which indicates 40 ppm.

[3] = system: Puccinia recondita f. sp. tritici; assay: Test C: wheat leaf rust, spray the day after inoculation of wheat seedlings; conditions: 200 ppm; wheat seedlings inoculated, sprayed the following day, rated after 5 days;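 further: Curative spray on infected wheat seedlings with visual rating 5 days later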
Description: General protocol for preparing test suspensions for Tests A-G: the test compounds were first dissolved in acetone in an amount equal to 11% of the final volume and then suspended at the desired concentration (in ppm) in acetone and purified water (50/50 mix by volume) containing 250 ppm of the surfactant Trem® 014 (polyhydric alcohol esters). The resulting test suspensions were then used in Tests A-G. Spraying a 200 ppm test suspension to the point of run-off on the test plants was the equivalent of a rate of 800 g/ha. Wheat seedlings were inoculated with a spore suspension of Puccinia recondita f. sp. tritici (the causal agent of wheat leaf rust) and incubated in a saturated atmosphere at 20° C. for 24 h. The following day, the test suspension was sprayed to the point of run-off on the wheat seedlings and then moved to a growth chamber at 20° C. for 5 days, after which time disease ratings were visually made. Results for Tests A-G are given in Table A. In the Table, a rating of 100 indicates 100% disease control and a rating of 0 indicates no disease control (relative to the controls). A dash (-) indicates no test results. All results are for 200 ppm except where followed by an “*”, which indicates 40 ppm.

Septoria tritici = assay: Test E: wheat leaf blotch, preventive spray on wheat seedlings; conditions: 200 ppm; wheat seedlings sprayed to run-off, inoculated next day, rated after 48 h + 19 days
Description: General protocol for preparing test suspensions for Tests A-G: the test compounds were first dissolved in acetone in an amount equal to 11% of the final volume and then suspended at the desired concentration (in ppm) in acetone and purified water (50/50 mix by volume) containing 250 ppm of the surfactant Trem® 014 (polyhydric alcohol esters). The resulting test suspensions were then used in Tests A-G. Spraying a 200 ppm test suspension to the point of run-off on the test plants was the equivalent of a rate of 800 g/ha. The test suspension was sprayed to the point of run-off on wheat seedlings. The following day the seedlings were inoculated with a spore suspension of Septoria tritici (the causal agent of wheat leaf blotch) and incubated in a saturated atmosphere at 24° C. for 48 h, and then moved to a growth chamber at 20° C. for 19 days, after which time disease ratings were visually made. Results for Tests A-G are given in Table A. In the Table, a rating of 100 indicates 100% disease control and a rating of 0 indicates no disease control (relative to the controls). A dash (-) indicates no test results. All results are for 200 ppm except where followed by an “*”, which indicates 40 ppm.

Alternaria solani = assay: Test G: tomato early blight, preventive spray on tomato seedlings; conditions: 200 ppm; tomato seedlings sprayed to run-off, inoculated next day, rated after 48 h + 5 days
Description: General protocol for preparing test suspensions for Tests A-G: the test compounds were first dissolved in acetone in an amount equal to 11% of the final volume and then suspended at the desired concentration (in ppm) in acetone and purified water (50/50 mix by volume) containing 250 ppm of the surfactant Trem® 014 (polyhydric alcohol esters). The resulting test suspensions were then used in Tests A-G. Spraying a 200 ppm test suspension to the point of run-off on the test plants was the equivalent of a rate of 800 g/ha. The test suspension was sprayed to the point of run-off on tomato seedlings. The following day the seedlings were inoculated with a spore suspension of Alternaria solani (the causal agent of tomato early blight) and incubated in a saturated atmosphere at 27° C. for 48 h, and then moved to a growth chamber at 24° C. for 5 days, after which time disease ratings were visually made. Results for Tests A-G are given in Table A. In the Table, a rating of 100 indicates 100% disease control and a rating of 0 indicates no disease control (relative to the controls). A dash (-) indicates no test results. All results are for 200 ppm except where followed by an “*”, which indicates 40 ppm.

Septoria nodorum = assay: Test D: wheat glume blotch, preventive spray on wheat seedlings; conditions: 200 ppm; wheat seedlings sprayed to run-off, inoculated next day, rated after 48 h + 7 days
Description: General protocol for preparing test suspensions for Tests A-G: the test compounds were first dissolved in acetone in an amount equal to 11% of the final volume and then suspended at the desired concentration (in ppm) in acetone and purified water (50/50 mix by volume) containing 250 ppm of the surfactant Trem® 014 (polyhydric alcohol esters). The resulting test suspensions were then used in Tests A-G. Spraying a 200 ppm test suspension to the point of run-off on the test plants was the equivalent of a rate of 800 g/ha. The test suspension was sprayed to the point of run-off on wheat seedlings. The following day the seedlings were inoculated with a spore suspension of Septoria nodorum (the causal agent of wheat glume blotch) and incubated in a saturated atmosphere at 20° C. for 48 h, and then moved to a growth chamber at 20° C. for 7 days, after which time disease ratings were visually made. Results for Tests A-G are given in Table A. In the Table, a rating of 100 indicates 100% disease control and a rating of 0 indicates no disease control (relative to the controls). A dash (-) indicates no test results. All results are for 200 ppm except where followed by an “*”, which indicates 40 ppm.

Botrytis cinerea = assay: Test F: tomato botrytis, preventive spray on tomato seedlings; conditions: 200 ppm; tomato seedlings sprayed to run-off, inoculated next day, rated after 48 h + 3 days
Description: General protocol for preparing test suspensions for Tests A-G: the test compounds were first dissolved in acetone in an amount equal to 11% of the final volume and then suspended at the desired concentration (in ppm) in acetone and purified water (50/50 mix by volume) containing 250 ppm of the surfactant Trem® 014 (polyhydric alcohol esters). The resulting test suspensions were then used in Tests A-G. Spraying a 200 ppm test suspension to the point of run-off on the test plants was the equivalent of a rate of 800 g/ha. The test suspension was sprayed to the point of run-off on tomato seedlings. The following day the seedlings were inoculated with a spore suspension of Botrytis cinerea (the causal agent of tomato botrytis) and incubated in saturated atmosphere at 20° C. for 48 h, and then moved to a growth chamber at 27° C. for 3 additional days, after which time disease ratings were visually made. Results for Tests A-G are given in Table A. In the Table, a rating of 100 indicates 100% disease control and a rating of 0 indicates no disease control (relative to the controls). A dash (-) indicates no test results. All results are for 200 ppm except where followed by an “*”, which indicates 40 ppm.

COC(=O)NCc1cc(-n2ccc(-c3ccc4c(c3)N(C)CCO4)n2)ccc1F [Compound 21]
Percentage Disease Control Test A [1]: 13% | Percentage Disease Control Test B [2]: 100% | Percentage Disease Control Test C [3]: 98% | Percentage Disease Control Test E (Septoria tritici): 96% | Percentage Disease Control Test G (Alternaria solani): 99% | Percentage Disease Control Test D (Septoria nodorum): 100% | Percentage Disease Control Test F (Botrytis cinerea): 99%

COC(=O)NCc1cc(-n2ccc(-c3ccc4c(c3)C(F)CCO4)n2)ccc1F (stereo not shown) [Compound 22]
Percentage Disease Control Test A [1]: 100% | Percentage Disease Control Test B [2]: 100% | Percentage Disease Control Test C [3]: 100% | Percentage Disease Control Test E (Septoria tritici): 94% | Percentage Disease Control Test G (Alternaria solani): 8% | Percentage Disease Control Test D (Septoria nodorum): 100% | Percentage Disease Control Test F (Botrytis cinerea): 33%

COC(=O)NCc1cc(-n2ccc(-c3ccc4c(c3)OCCO4)n2)ccc1C [Compound 26]
Percentage Disease Control Test A [1]: 100% | Percentage Disease Control Test B [2]: 100% | Percentage Disease Control Test C [3]: 100% | Percentage Disease Control Test E (Septoria tritici): 99% | Percentage Disease Control Test G (Alternaria solani): 9% | Percentage Disease Control Test D (Septoria nodorum): 100% | Percentage Disease Control Test F (Botrytis cinerea): 33%

COC(=O)NCc1cc(-c2ccn(-c3ccc4c(c3)C=C(C#N)CO4)n2)ccc1Cl [Compound 27]
Percentage Disease Control Test A [1]: 0% | Percentage Disease Control Test B [2]: 99% | Percentage Disease Control Test C [3]: 0% | Percentage Disease Control Test E (Septoria tritici): 0% | Percentage Disease Control Test G (Alternaria solani): 86% | Percentage Disease Control Test D (Septoria nodorum): 100% | Percentage Disease Control Test F (Botrytis cinerea): 66%
